Literature values as cited in patent publication US8216611B2, “Combined-step process for pharmaceutical compositions” (Mylan Pharmaceuticals ULC, priority 2005, dated 2012).

Legend:
epileptic patients = conditions: doses up to 4000 mg/day, preliminary data
healthy volunteers = system: healthy volunteers; parameters: tolerability at single dose: dose or concentration left out as unconfirmed

In the case of CC[C@@H](C(N)=O)N1CCCC1=O [levetiracetam, (−)-(S)-α-ethyl-2-oxo-1-pyrrolidine acetamide], the “tolerability in epileptic patients” value (epileptic patients) is listed as “good tolerability”, the “tolerability at repeated doses” value (healthy volunteers; repeated doses (1500 mg/day for 14 days)) is listed as “well tolerated” and the “tolerability at single dose” value (healthy volunteers; single dose) is listed as “well tolerated”. The solubility in water was 104.0 g/100 ml.
